Assay results taken from patent US10513514B2, “Piperidine compounds as PCSK9 inhibitors” (SHENZHEN SALUBRIS PHARM CO LTD, priority 2017, dated 2019).

Key:
PCSK9 = PCSK9 (Homo sapiens (Human), UniProt Q8NBP7); test: In vitro screening experiment (AlphaLISA anti-PCSK9, PCSK9-Huh7 cells); assay type: cell-based; settings: 20 h incubation, AlphaLISA reading
Procedure: 1) Preparation of 1× AlphaLISA test buffer solution:
2.5 ml of 10× AlphaLISA test buffer solution was added to 22.5 ml of Milli-Q water to produce the 1× AlphaLISA test buffer solution.
50 μL of 5 mg/mL Alpha LISA Anti-PCSK9 Acceptor beads and 50 μL of 500 nM Biotinylated Antibody Anti-PCSK9 were added to 9,900 μL of 1× AlphaLISA test buffer solution.
3) Preparation of 2× Streptavidin (SA) Donor beads (80 μg/mL):
200 μL of 5 mg/mL SA-Donor beads was added to 12,300 μL of 1× AlphaLISA test buffer solution.
3) 20 μL/pore mixture of 2.5× AlphaLISA Acceptor beads and Biotinylated Antibody Anti-PCSK9 was added, and incubated at 23° C. for 60 min.
4) 25 μL/pore 2× Streptavidin (SA) Donor beads were added; and incubated for 30 min at 23° C. (kept in dark place).
5) EnVision-Alpha Reader reading:
Date was analyzed with Prismsoftware (nonlinear regression (Sigmoidal dose-response-variable slope) Inhibition ratio %=100*(Sample reading−LC reading)/(HC reading−LC reading) Computational formula: […]

[1] = Research of pharmacokinetic properties in SD rats (bioavailability); assay type: in vivo; settings: male SD rats; 1 mg/kg intravenous injection, 5 mg/kg by gavage
Procedure: Research of Pharmacokinetic Properties in SD Rats
This example was intended to evaluate the PK properties of test compound, and calculate the bioavailability in male SD rats. Each test compound used six male SD rats, Six male SD rats were randomly divided into two groups. Three rats were respectively administrated with the dose of 1 mg/kg by intravenous injection; the whole blood was collected at 0.0833, 0.25, 0.5, 1, 2, 4, 6, 8 and 24 h after administration and plasma samples were prepared. The other three rats were respectively administrated with the dose of 5 mg/kg by gavage, the whole blood was collected at 0.25, 0.5, 1, 2, 4, 6, 8 and 24 h after administration, and plasma samples were prepared. the concentration of the test compound in the plasma was tested by LC/MS/MS method, and relevant PK parameters was calculated with Phoenix WinNonlin 6.2.1.
For the bioavailability data, see table 2.

| SMILES | IC50 (PCSK9) | F in rats (%) [1] |
| --- | --- | --- |
| COc1cccnc1N(C(=O)c1ccc(C2=NOC(C)(C)C2=O)cc1)[C@@H]1CCCNC1 [WX009] | < 10 µM | – |
| Cc1cc(C(=O)N(c2ncccc2Cl)[C@@H]2CCCNC2)ccc1C1=NOC(C)(C)C1=O [WX022] | < 10 µM | – |
| Cc1cccnc1N(C(=O)c1ccc(C2=NOC(C)(C)C2=O)cc1)[C@@H]1CCCNC1 [WX002] | < 10 µM | 68.0% |
| COCc1cccnc1N(C(=O)c1ccc(C2=NOC(C)(C)C2=O)cc1)[C@@H]1CCCNC1 [WX041] | < 10 µM | – |
| Cc1cc(F)cnc1N(C(=O)c1ccc(C2=NOC(C)(C)C2=O)cc1)[C@@H]1CCCNC1 [WX008] | < 10 µM | – |
| Cc1cccnc1N(C(=O)c1ccc(C2=NOC(C)(C)C2=O)cc1F)[C@@H]1CCCNC1 [WX027] | < 10 µM | 58.8% |
| CC1(C)ON=C(c2ccc(C(=O)N(c3ncccc3Cl)[C@@H]3CCCNC3)cc2)C1=O [WX001] | < 10 µM | 83.9% |
| CC1(C)ON=C(c2ccc(C(=O)N(c3nccc4c3COC4)[C@@H]3CCCNC3)cc2)C1=O [WX026] | < 10 µM | – |
| Cc1cccnc1N(C(=O)c1ccc(C2=NOC(C)(C)C2O)cc1)[C@@H]1CCCNC1 (stereo partly drawn) [WX025] | < 10 µM | – |
| O=C(c1ccc(-n2nnc3cccnc32)cc1)N(c1ncccc1Cl)[C@@H]1CCCNC1 [PF-06446846, reference compound] | – | 20% |
| Cc1cc(C2=NOC(C)(C)C2=O)ccc1C(=O)N(c1ncccc1C)[C@@H]1CCCNC1 [WX023] | < 10 µM | – |
| CC1(C)ON=C(c2ccc(C(=O)N(c3ncccc3F)[C@@H]3CCCNC3)cc2)C1=O [WX013] | < 10 µM | – |
| Cc1cc(C(=O)N(c2ncccc2C)[C@@H]2CCCNC2)ccc1C1=NOC(C)(C)C1=O [WX024] | < 10 µM | – |
| CC1(C)ON=C(c2ccc(C(=O)N(c3ncccc3-c3ccncc3)[C@@H]3CCCNC3)cc2)C1=O [WX037] | < 10 µM | – |
| CC1(C)ON=C(c2ccc(C(=O)N(c3ccccn3)[C@@H]3CCCNC3)cc2)C1=O [WX006] | < 10 µM | – |
| CC1(C)ON=C(c2ccc(C(=O)N(c3ncccc3-c3ccccc3)[C@@H]3CCCNC3)cc2)C1=O [WX038] | < 10 µM | – |
| Cc1cnc(N(C(=O)c2ccc(C3=NOC(C)(C)C3=O)cc2)[C@@H]2CCCNC2)c(C)c1 [WX012] | < 10 µM | – |
| CO/N=C1/C(c2ccc(C(=O)N(c3ncccc3C)[C@@H]3CCCNC3)cc2)=NOC1(C)C [WX040] | < 10 µM | 56.3% |
| Cc1cccnc1N(C(=O)c1ccc(C2=NOC(C)(C)/C2=N\O)cc1)[C@@H]1CCCNC1 [WX039] | < 10 µM | – |
| Cc1cc(Cl)cnc1N(C(=O)c1ccc(C2=NOC(C)(C)C2=O)cc1)[C@@H]1CCCNC1 [WX011] | < 10 µM | – |
| Cc1ccnc(N(C(=O)c2ccc(C3=NOC(C)(C)C3=O)cc2)[C@@H]2CCCNC2)c1Cl [WX015] | < 10 µM | – |
| Cc1cc(C2=NOC(C)(C)C2=O)ccc1C(=O)N(c1ncccc1Cl)[C@@H]1CCCNC1 [WX021] | < 10 µM | 37.7% |
